In patent US8785488B2 (Exelixis Patent Company LLC, priority 2009, dated 2014):

molecular target: T1, human TGR5 (h-TGR5) (Homo sapiens, UniProt Q8TDU6); experiment: TGR5/CRE-Luciferiase Assay (HEK 293 hTGR5/CRE-Luc cells); type: cell-based; details: h-TGR5 CRE-Luc EC50, Table 1; read-out: CRE-Luc (EC50)
T1 construct: expressed in transfected cells
T1 sequence (Q8TDU6 1-330): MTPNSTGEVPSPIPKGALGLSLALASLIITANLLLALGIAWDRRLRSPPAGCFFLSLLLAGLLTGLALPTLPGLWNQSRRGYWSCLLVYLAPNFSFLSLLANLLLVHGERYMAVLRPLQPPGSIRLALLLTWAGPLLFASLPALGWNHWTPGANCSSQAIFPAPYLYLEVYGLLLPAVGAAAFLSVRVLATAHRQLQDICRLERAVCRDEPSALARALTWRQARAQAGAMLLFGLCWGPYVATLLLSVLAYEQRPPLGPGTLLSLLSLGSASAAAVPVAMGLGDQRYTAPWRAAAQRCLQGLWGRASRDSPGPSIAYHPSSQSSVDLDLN
How it was run: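 HEK293 cells stably carrying hTGR5 and a CRE-luciferase reporter were exposed to serially diluted compounds (diluted in DMEM with 5% DMSO) for 6 h. Cells were then lysed in luciferase buffer, luminescence was read, and EC50 values were derived from dose-response curves.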

| SMILES | EC50 |
| --- | --- |
| COc1cc(F)ccc1-n1c(C(C)(C)c2ccc(Cl)c(Cl)c2)cnc1SCc1ccc(F)cc1Cl [2-{[(2-chloro-4-fluorophenyl)methyl]thio}-5-[1-(3,4-dichlorophenyl)-1-methylethyl]-1-[4-fluoro-2-(methyloxy)phenyl]-1H-imidazole] | 100 to 1000 nM |
| CC(C)(c1ccc(Cl)c(Cl)c1)c1cnc(SCc2ccc(F)cc2Cl)n1-c1ccc(F)c(C(F)(F)F)c1 [2-{[(2-chloro-4-fluorophenyl)methyl]thio}-5-[1-(3,4-dichlorophenyl)-1-methylethyl]-1-[4-fluoro-3-(trifluoromethyl)phenyl]-1H-imidazole] | 1000 to 10000 nM |
| CC(C)(c1ccc(Cl)c(Cl)c1)c1cnc(S(=O)(=O)Cc2c(F)cccc2Cl)n1-c1ccc(F)cc1F [2-{[(2-chloro-6-fluorophenyl)methyl]sulfonyl}-5-[1-(3,4-dichlorophenyl)-1-methylethyl]-1-(2,4-difluorophenyl)-1H-imidazole] | 100 to 1000 nM |
| CC(C)(c1ccc(F)cc1)c1cnc(SCc2c(F)cccc2Cl)n1-c1ccc(F)cc1 [2-{[(2-chloro-6-fluorophenyl)methyl]thio}-1-(4-fluorophenyl)-5-[1-(4-fluorophenyl)-1-methylethyl]-1H-imidazole] | 100 to 1000 nM |
| CC(C)(c1ccc(S(C)(=O)=O)cc1)c1cnc(SCc2c(F)cccc2Cl)n1-c1ccc(F)cc1 [2-{[(2-chloro-6-fluorophenyl)methyl]thio}-1-(4-fluorophenyl)-5-{1-methyl-1-[4-(methylsulfonyl)phenyl]ethyl}-1H-imidazole] | 100 to 1000 nM |
| CC(C)(c1ccc(C(F)(F)F)cc1)c1cnc(SCc2c(F)cccc2Cl)n1-c1ccc(F)cc1 [2-{[(2-chloro-6-fluorophenyl)methyl]thio}-1-(4-fluorophenyl)-5-{1-methyl-1-[4-(trifluoromethyl)phenyl]ethyl}-1H-imidazole] | 100 to 1000 nM |
| CC(C)(c1ccc(Cl)c(Cl)c1)c1cnc(SCc2c(F)cccc2Cl)n1C1CCCC1 [2-{[(2-chloro-6-fluorophenyl)methyl]thio}-1-cyclopentyl-5-[1-(3,4-dichlorophenyl)-1-methylethyl]-1H-imidazole] | 1000 to 10000 nM |
| CC(C)n1c(C(C)(C)c2ccc(Cl)c(Cl)c2)cnc1SCc1c(F)cccc1Cl [2-{[(2-chloro-6-fluorophenyl)methyl]thio}-5-[1-(3,4-dichlorophenyl)-1-methylethyl]-1-(1-methylethyl)-1H-imidazole] | 1000 to 10000 nM |
| CC(C)(c1ccc(Cl)c(Cl)c1)c1c(-c2ccccc2)nc(SCc2c(F)cccc2Cl)n1-c1ccc(F)cc1 [2-{[(2-chloro-6-fluorophenyl)methyl]thio}-5-[1-(3,4-dichlorophenyl)-1-methylethyl]-1-(4-fluorophenyl)-4-phenyl-1H-imidazole] | 1000 to 10000 nM |
| CC(C)(c1ccc(F)c(F)c1)c1cnc(SCc2c(F)cccc2Cl)n1-c1ccc(F)cc1 [2-{[(2-chloro-6-fluorophenyl)methyl]thio}-5-[1-(3,4-difluorophenyl)-1-methylethyl]-1-(4-fluorophenyl)-1H-imidazole] | < 100 nM |
| Fc1ccc(-n2c(C(F)(F)c3ccc(Cl)c(Cl)c3)cnc2SCc2c(F)cccc2Cl)cc1 [2-{[(2-chloro-6-fluorophenyl)methyl]thio}-5-[(3,4-dichlorophenyl)(difluoro)methyl]-1-(4-fluorophenyl)-1H-imidazole] | 1000 to 10000 nM |
| CC(C)(c1ccc(Cl)c(OCCCO)c1)c1cnc(SCc2c(F)cccc2Cl)n1-c1ccc(F)cc1 [3-[(2-chloro-5-{1-[2-{[(2-chloro-6-fluorophenyl)methyl]thio}-1-(4-fluorophenyl)-1H-imidazol-5-yl]-1-methylethyl}phenyl)oxy]propan-1-ol] | 100 to 1000 nM |
| CC(C)(c1ccc(Cl)c(Cl)c1)c1cnc(SCc2c(Cl)cccc2C(=O)O)n1-c1ccc(F)cc1 [3-chloro-2-[({5-[1-(3,4-dichlorophenyl)-1-methylethyl]-1-(4-fluorophenyl)-1H-imidazol-2-yl}thio)methyl]benzoic acid] | 100 to 1000 nM |

Second part, the compound after the results:

| EC50 | SMILES |
| --- | --- |
| 100 to 1000 nM | CC(C)(c1ccc(F)c(F)c1)c1cnc(SCc2ccc(F)cc2Cl)n1-c1ccc(F)cc1 [2-{[(2-chloro-4-fluorophenyl)methyl]thio}-5-[1-(3,4-difluorophenyl)-1-methylethyl]-1-(4-fluorophenyl)-1H-imidazole] |
| 100 to 1000 nM | Fc1ccc(-n2c(Cc3ccc(F)c(F)c3)cnc2SCc2ccc(F)cc2Cl)cc1 [2-{[(2-chloro-4-fluorophenyl)methyl]thio}-5-[(3,4-difluorophenyl)methyl]-1-(4-fluorophenyl)-1H-imidazole] |
| < 100 nM | COc1ccc(C(C)(C)c2cnc(SCc3ccc(F)cc3Cl)n2-c2ccc(F)cc2)cc1Cl [2-{[(2-chloro-4-fluorophenyl)methyl]thio}-5-{1-[3-chloro-4-(methyloxy)phenyl]-1-methylethyl}-1-(4-fluorophenyl)-1H-imidazole] |
| 1000 to 10000 nM | CC(C)(c1ccc(Cl)c(Cl)c1)c1cnc(COc2ccc(F)cc2Cl)n1-c1ccc(F)cc1 [2-{[(2-chloro-4-fluorophenyl)oxy]methyl}-5-[1-(3,4-dichlorophenyl)-1-methylethyl]-1-(4-fluorophenyl)-1H-imidazole] |
| 1000 to 10000 nM | CC(C)(c1ccc(Cl)c(Cl)c1)c1cnc(CS(=O)(=O)c2ccc(F)cc2Cl)n1-c1ccc(F)cc1 [2-{[(2-chloro-4-fluorophenyl)sulfonyl]methyl}-5-[1-(3,4-dichlorophenyl)-1-methylethyl]-1-(4-fluorophenyl)-1H-imidazole] |
| 1000 to 10000 nM | CC(C)(c1ccc(Cl)c(Cl)c1)c1cnc(S(=O)(=O)Cc2c(F)cccc2Cl)n1-c1ccc(Cl)c(Cl)c1 [2-{[(2-chloro-6-fluorophenyl)methyl]sulfonyl}-1-(3,4-dichlorophenyl)-5-[1-(3,4-dichlorophenyl)-1-methylethyl]-1H-imidazole] |
| 100 to 1000 nM | CC(C)(c1ccc(Cl)c(Cl)c1)c1cnc(S(=O)(=O)Cc2c(F)cccc2Cl)n1-c1ccc(F)cc1 [2-{[(2-chloro-6-fluorophenyl)methyl]sulfonyl}-5-[1-(3,4-dichlorophenyl)-1-methylethyl]-1-(4-fluorophenyl)-1H-imidazole] |
| 100 to 1000 nM | CC(C)(c1ccc(Cl)c(Cl)c1)c1cnc(SCc2c(F)cccc2Cl)n1-c1ccc(Cl)c(Cl)c1 [2-{[(2-chloro-6-fluorophenyl)methyl]thio)-1-(3,4-dichlorophenyl)-5-[1-(3,4-dichlorophenyl)-1-methylethyl]-1H-imidazole] |
| 1000 to 10000 nM | CC(C)(c1ccc(Cl)c(Cl)c1)c1cnc(SCc2c(F)cccc2Cl)n1-c1ccc(Cl)cc1Cl [2-{[(2-chloro-6-fluorophenyl)methyl]thio}-1-(2,4-dichlorophenyl)-5-[1-(3,4-dichlorophenyl)-1-methylethyl]-1H-imidazole] |
| < 100 nM | CC(C)(c1ccc2c(c1)OCCO2)c1cnc(SCc2c(F)cccc2Cl)n1-c1ccc(F)cc1 [2-{[(2-chloro-6-fluorophenyl)methyl]thio}-5-[1-(2,3-dihydro-1,4-benzodioxin-6-yl)-1-methylethyl]-1-(4-fluorophenyl)-1H-imidazole] |
| 1000 to 10000 nM | CC(C)(c1ccc(Cl)c(Cl)c1)c1cnc(SCc2c(F)cccc2Cl)n1-c1ccc(F)cc1C(F)(F)F [2-{[(2-chloro-6-fluorophenyl)methyl]thio}-5-[1-(3,4-dichlorophenyl)-1-methylethyl]-1-[4-fluoro-2-(trifluoromethyl)phenyl]-1H-imidazole] |
| 100 to 1000 nM | CC(C)(c1ccc(Cl)cc1)c1cnc(SCc2c(F)cccc2Cl)n1-c1ccc(F)cc1 [2-{[(2-chloro-6-fluorophenyl)methyl]thio}-5-[1-(4-chlorophenyl)-1-methylethyl]-1-(4-fluorophenyl)-1H-imidazole] |
| 100 to 1000 nM | CC(C)(c1ccc(Cl)c(Cl)c1)c1cnc(COc2c(F)cccc2Cl)n1-c1ccc(F)cc1 [2-{[(2-chloro-6-fluorophenyl)oxy]methyl}-5-[1-(3,4-dichlorophenyl)-1-methylethyl]-1-(4-fluorophenyl)-1H-imidazole] |
| 100 to 1000 nM | CC(C)(c1ccc(Cl)c(Cl)c1)c1cnc(S(=O)(=O)Cc2ccc(F)c(Cl)c2)n1-c1ccc(F)cc1 [2-{[(3-chloro-4-fluorophenyl)methyl]sulfonyl}-5-[1-(3,4-dichlorophenyl)-1-methylethyl]-1-(4-fluorophenyl)-1H-imidazole] |
| 1000 to 10000 nM | CC(C)(c1ccc(Cl)c(Cl)c1)c1cnc(C(O)CCc2ccc(Cl)cc2Cl)n1-c1ccc(F)cc1 (stereo not shown) [3-(2,4-dichlorophenyl)-1-{5-[1-(3,4-dichlorophenyl)-1-methylethyl]-1-(4-fluorophenyl)-1H-imidazol-2-yl}propan-1-ol] |
| 1000 to 10000 nM | CC(C)(c1ccc(Cl)c(Cl)c1)c1cnc(C(=O)CCc2ccc(Cl)cc2Cl)n1-c1ccc(F)cc1 [3-(2,4-dichlorophenyl)-1-{5-[1-(3,4-dichlorophenyl)-1-methylethyl]-1-(4-fluorophenyl)-1H-imidazol-2-yl}propan-1-one] |
| 100 to 1000 nM | CC(C)(c1ccc(Cl)c(Cl)c1)c1cnc(SCC2CCCN(S(C)(=O)=O)C2)n1-c1ccc(F)cc1 (stereo not shown) [3-[({5-[1-(3,4-dichlorophenyl)-1-methylethyl]-1-(4-fluorophenyl)-1H-imidazol-2-yl}thio)methyl]-1-(methylsulfonyl)piperidine] |
| 1000 to 10000 nM | CC(C)(c1ccc(Cl)c(Cl)c1)c1cnc(COc2ncc(C(F)(F)F)cc2Cl)n1-c1ccc(F)cc1 [3-chloro-2-[({5-[1-(3,4-dichlorophenyl)-1-methylethyl]-1-(4-fluorophenyl)-1H-imidazol-2-yl}methyl)oxy]-5-(trifluoromethyl)pyridine] |
